Experimental findings from US10246448B2, “4-hydroxy-2-phenyl-1,3-thiazol-5-yl methanone derivatives as TRPM8 antagonists” (DOMPÉ FARMACEUTICI S.P.A., priority 2015, dated 2019) are described below.

The target in data set [1] is T1, human TRPM8 (Homo sapiens, UniProt Q7Z2W7). The data set can be described thus: In vitro cold stimulation assay.
Description: The TRPM8 antagonisticic activity of all 26 compounds was determined in an in vitro cold stimulation assay.
3-4 days after seeding (˜80% confluent cells), the medium was removed and cells were loaded by a solution of Screen Quest™ Fluo-8 NW dye (ABS Bioquest, Sunnyvale, Calif., USA) in the dark. Dye-loaded cell flasks were incubated for 45 minutes at room temperature in the dark and the Fluo-8 NW solution was then removed and cells were seeded in the 96 Assay Plates (MicroAmp™ Optical 96-Well Reaction Plates; Applied Biosystems, Life technologies) at 100,000 cells/'well (20 μl/well). […] All data point determinations were performed in duplicate before a mean value was calculated, including error bars representing the standard error of the mean.
Data set [2] in a line: Metabolic stability in rat microsomes, Phase I assay. The format is in vitro ADME. The note with it: for half-life at 1 μM: pH 7.4, rat liver microsomes 0.5 mg/ml, compound 1 μM, NADP cofactors mixture, 37° C., read-out: Metabolic Stability (t1/2, min) Phase1; for intrinsic clearance half-life (in words): metabolic stability in rat microsomes. The method, then:
Compounds 1, 2, 8 and 9 in duplicate were dissolved in DMSO and pre-incubated, at the final concentration of 1 μM, for 10 min at 37° C. in potassium phosphate buffer 50 mM pH 7.4, 3 mM MgCl2, with rat liver microsomes (Xenotech) at the final concentration of 0.5 mg/ml.
After the pre-incubation period, reactions were started by adding the cofactors mixture (NADP, Glc6P, Glc6P-DH in 2% Sodium bicarbonte); samples (50 μl) were taken at time 0, 10, 20, 30 and 60 min added to 150 μl of acetonitrile with Verapamil 0.02 μM as Internal Standard (IS) to stop the reaction. After centrifugation the supernatants were analysed by LC-MS/MS.
A control sample without cofactors was added in order to check the stability of test compounds in the matrix after 60 min. 7-Ethoxycoumarin and propranolol were added as reference standards.

The target of data set [3] is T1, human TRPM8. The data set can be described thus: In vitro TRPM8 assay: intracellular calcium levels, Ca2+ sensitive fluorescent dye (FLIPR), agonist Icilin or Cooling Agent 10. The format is cell-based. Also noted: expressed in transfected cells. The note with it: HEK-293 cells stably expressing human TRPM8. The method, then:
The TRPM8 antagonistic activity of all 26 compounds was determined by measuring changes in intracellular calcium levels using a Ca^+2 sensitive fluorescent dye. The experiments were performed using HEK-293 cells stably expressing the human TRPM8. Cells were seeded 10000 cells/well in 384 plates coated by Poly-D-Lysine MATRIX black/clear bottom (Thermo Scientific, Waltham, Mass. USA) in complete medium and grown overnight at 37° C., 5% CO2. 24 h after seeding, cell culture media was removed, cells were washed with Tyrode's assay buffer and then loaded with the fluorescent Ca^+2 indicator Fluo-4 NW dye (Molecular Probes, Life Technologies, Paisley, UK) supplemented with water-soluble Probenecid (Molecular Probes). Dye loaded cell plates were incubated for 1 h at room temperature. The compounds or vehicle were added and the kinetic response was monitored by a fluorimetric imaging plate ([…]; Molecular Devices, Sunnyvale, Calif., USA) over a period of five minutes (300 seconds). A second injection 5 minutes later of the reference agonist Cooling Agent 10 or Icilin at EC80 concentration was performed. The signal of the emitted fluorescence was recorded during additional three minutes. Data were analyzed by Spotfire DecisionSite version 9.1.1. The bioactivity exerted by the compounds or vehicle was expressed as a percent inhibition and IC50 values were then calculated.

The nature of data set [4]: Metabolic stability in rat microsomes, Phase II assay. It is filed as in vitro ADME. The note with it: pH 7.4; rat liver microsomes 0.5 mg/mL, Alamethicin activated, UDPGA, compound 1 μM, 37° C.; read-out: Metabolic Stability (t1/2, min) Phase2. The protocol: Rat liver microsomes (0.5 mg/mL final conc.) were incubated in ice for 15 min in 50 mM potassium phosphate buffer pH 7.4, 3 mM MgCl2 and activated with Alamethicin 50 μg/mg microsomal protein. Samples were transferred at 37° C. and compounds 1, 2, 8 and 9, dissolved in DMSO, were added in duplicate at the final concentration of 1 μM. After 5 min, reaction is started by adding 25 μl of UDPGA (16.15 mg/ml in 0.2% Sodium Bicarbonate). Samples were taken at time 0, 10, 20, 30 and 60 min added to 150 μl of acetonitrile with Verapamil 0.02 uM as Internal Standard (IS) to stop the reaction. After centrifugation the supernatants were analysed by LC-MS/MS. 7-Hydroxycoumarin was added as reference standard.
On the technique in general: Microsomes from liver hold many membrane-bound enzymes, among them those of drug oxidation.

The mark [5] stands for this setting: agonist Cooling Agent 10 at EC80, read-out: Ca2+ (IC50 μM) Cool 10.
Where [6] appears, read: agonist Icilin at EC80, read-out: Ca2+ (IC50 μM) Icilin.

T1 sequence (Q7Z2W7 whole entry): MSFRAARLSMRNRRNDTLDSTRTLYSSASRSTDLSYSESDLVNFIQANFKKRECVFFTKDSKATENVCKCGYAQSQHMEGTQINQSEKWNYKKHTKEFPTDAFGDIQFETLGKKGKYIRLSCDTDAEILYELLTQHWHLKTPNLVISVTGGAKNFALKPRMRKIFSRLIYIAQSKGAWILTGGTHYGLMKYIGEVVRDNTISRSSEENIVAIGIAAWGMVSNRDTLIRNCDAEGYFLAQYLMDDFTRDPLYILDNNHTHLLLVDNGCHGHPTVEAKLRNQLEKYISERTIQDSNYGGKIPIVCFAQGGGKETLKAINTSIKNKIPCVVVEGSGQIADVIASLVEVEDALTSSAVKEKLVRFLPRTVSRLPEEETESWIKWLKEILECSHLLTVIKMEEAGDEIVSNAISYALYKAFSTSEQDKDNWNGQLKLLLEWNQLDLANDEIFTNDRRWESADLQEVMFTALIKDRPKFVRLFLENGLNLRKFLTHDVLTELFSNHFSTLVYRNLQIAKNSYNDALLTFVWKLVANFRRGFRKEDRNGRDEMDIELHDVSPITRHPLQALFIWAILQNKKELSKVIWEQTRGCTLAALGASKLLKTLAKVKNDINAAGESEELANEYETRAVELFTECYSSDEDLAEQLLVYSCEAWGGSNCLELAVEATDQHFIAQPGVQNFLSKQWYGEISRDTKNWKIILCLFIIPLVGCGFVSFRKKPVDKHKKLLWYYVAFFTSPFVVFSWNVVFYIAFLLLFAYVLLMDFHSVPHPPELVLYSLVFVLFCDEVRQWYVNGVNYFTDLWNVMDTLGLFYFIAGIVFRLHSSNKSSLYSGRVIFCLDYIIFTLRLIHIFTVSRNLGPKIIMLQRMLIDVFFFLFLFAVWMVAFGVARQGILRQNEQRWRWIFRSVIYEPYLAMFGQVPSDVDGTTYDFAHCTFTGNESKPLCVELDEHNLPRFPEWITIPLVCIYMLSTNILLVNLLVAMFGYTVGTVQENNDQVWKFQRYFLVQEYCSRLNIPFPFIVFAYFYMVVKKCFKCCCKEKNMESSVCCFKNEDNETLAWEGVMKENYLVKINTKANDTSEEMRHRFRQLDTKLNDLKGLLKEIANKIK

Regarding `O=C(c1sc(-c2cccc(F)c2)nc1O)N1CC2CCCC2O1` (stereo not drawn) [Example 30, [2-(3-fluorophenyl)-4-hydroxy-1,3-thiazol-5-yl](hexahydro-2H-cyclopenta[d][1,2]oxazol-2-yl)methanone], the IC50 on human TRPM8 [1] turned out to be 69 nM; at human TRPM8 [3] (setting [5]) it was 0.084 µM; on human TRPM8 [3] (setting [6]), 0.087 µM. In addition, the figures for the half-life at 1 μM in data set [2] and in data set [4] were 82 min and 85 min, respectively.
The matching figures for `O=C(c1sc(-c2ccccc2O)nc1O)N1CCOC1` [Example 4, [4-hydroxy-2-(2-hydroxyphenyl)-1,3-thiazol-5-yl](1,3-oxazolidin-3-yl)methanone]: 39 nM, 0.104 µM, 0.122 µM, 64 min and 41 min.
Consider `O=C(c1sc(-c2ccccc2O)nc1O)N1CCCO1` [Example 2, [4-hydroxy-2-(2-hydroxyphenyl)-1,3-thiazol-5-yl](1,2-oxazolidin-2-yl)methanone], for which the IC50 stood at 5.5 nM against human TRPM8 [1], 0.011 µM at human TRPM8 [3] (setting [5]) and 0.012 µM at human TRPM8 [3] (setting [6]). The “intrinsic clearance half-life (in words)” value in data set [2] is reported as “highest intrinsic clearance half-life”. Besides, the half-life at 1 μM in data set [2] came out at 97 min; in data set [4], 86 min.
As to `O=C(c1ccncc1)c1sc(-c2cccc(F)c2)nc1O` [Example 24, [2-(3-fluorophenyl)-4-hydroxy-1,3-thiazol-5-yl](pyridin-4-yl)methanone], the IC50 against human TRPM8 [1] is 525 nM; at human TRPM8 [3] (setting [5]) it was 0.601 µM; on human TRPM8 [3] (setting [6]), 0.624 µM. The half-life at 1 μM in data set [2] turned out to be 40 min; in data set [4], 48 min.
As to `O=C(c1sc(-c2ccccc2O)nc1O)N1CCOCC1` [Example 13, [4-hydroxy-2-(2-hydroxyphenyl)-1,3-thiazol-5-yl](morpholin-4-yl)methanone], the results for the IC50 against human TRPM8 [1], on human TRPM8 [3] (setting [5]) and on human TRPM8 [3] (setting [6]) were 752 nM, 1.12 µM and 1.22 µM, respectively. The half-life at 1 μM in data set [2] was 78 min; in data set [4], 36 min.
For `O=C(c1sc(-c2cccc(F)c2)nc1O)N1CCOC1` [Example 3, [2-(3-fluorophenyl)-4-hydroxy-1,3-thiazol-5-yl](1,3-oxazolidin-3-yl)methanone], the results for the half-life at 1 μM in data set [2] and in data set [4] were 78 min and 55 min, respectively.
Consider `O=C(c1sc(-c2cccc(F)c2)nc1O)N1CCCCO1` [Example 9, [2-(3-fluorophenyl)-4-hydroxy-1,3-thiazol-5-yl](1,2-oxazinan-2-yl)methanone], for which the values for the IC50 on human TRPM8 [1], at human TRPM8 [3] (setting [5]) and on human TRPM8 [3] (setting [6]) were 8 nM, 0.167 µM and 0.123 µM, respectively. The “intrinsic clearance half-life (in words)” value in data set [2] is recorded as “highest intrinsic clearance half-life”. Besides, the half-life at 1 μM in data set [2] was 98 min; in data set [4], 51 min.
In the case of `Cn1cccc1C(=O)c1sc(-c2cccc(F)c2)nc1O` [Example 18, [2-(3-fluorophenyl)-4-hydroxy-1,3-thiazol-5-yl](1-methyl-1H-pyrrol-2-yl)methanone], the IC50 turned out to be 1450 nM against human TRPM8 [1], 1.08 µM at human TRPM8 [3] (setting [5]) and 1.09 µM on human TRPM8 [3] (setting [6]). The figures for the half-life at 1 μM in data set [2] and in data set [4] were 78 min and 55 min, respectively.
Turning to `O=C(c1cccs1)c1sc(-c2cccc(F)c2)nc1O` [Example 20, [2-(3-fluorophenyl)-4-hydroxy-1,3-thiazol-5-yl](thiophen-2-yl)methanone], the IC50 on human TRPM8 [1] amounted to 1380 nM; at human TRPM8 [3] (setting [5]), 0.96 µM; on human TRPM8 [3] (setting [6]), 1.11 µM. The half-life at 1 μM in data set [2] was determined as 68 min; in data set [4], 59 min.
As for `O=C(c1sc(-c2ccccc2O)nc1O)N1CCCCO1` [Example 8, [4-hydroxy-2-(2-hydroxyphenyl)-1,3-thiazol-5-yl](1,2-oxazinan-2-yl)methanone], in data set [2], the “intrinsic clearance half-life (in words)” value is “highest intrinsic clearance half-life” and the half-life at 1 μM turned out to be 102 min. Besides, in data set [4], the half-life at 1 μM turned out to be 43 min.
With `Cn1nnnc1C(=O)c1sc(-c2cccc(F)c2)nc1O` [Example 32, [2-(3-fluorophenyl)-4-hydroxy-1,3-thiazol-5-yl](1-methyl-1H-tetrazol-5-yl)methanone], the results for the IC50 on human TRPM8 [1], at human TRPM8 [3] (setting [5]) and on human TRPM8 [3] (setting [6]) were 63 nM, 0.098 µM and 0.101 µM, respectively. Also, the half-life at 1 μM in data set [2] was found to be 81 min; in data set [4], 69 min.
Turning to `O=C(c1sc(-c2cccc(F)c2)nc1O)C1CCCN1` (stereo not drawn) [Example 15, [2-(3-fluorophenyl)-4-hydroxy-1,3-thiazol-5-yl](pyrrolidin-2-yl)methanone], the IC50 at human TRPM8 [1] was determined as 1310 nM; at human TRPM8 [3] (setting [5]), 1.56 µM; on human TRPM8 [3] (setting [6]) it was 1.23 µM. Also, the half-life at 1 μM in data set [2] is 65 min; in data set [4] it was 54 min.
Take `O=C(c1sc(-c2cccc(F)c2)nc1O)n1ccnc1` [Example 25, [2-(3-fluorophenyl)-4-hydroxy-1,3-thiazol-5-yl](1H-imidazol-1-yl)methanone]: the IC50 was 972 nM against human TRPM8 [1], 1.25 µM at human TRPM8 [3] (setting [5]) and 1.25 µM at human TRPM8 [3] (setting [6]). The half-life at 1 μM is 45 min in data set [2] and 40 min in data set [4].
As to `O=C(c1sc(-c2cccc(F)c2)nc1O)n1cccc1` [Example 21, [2-(3-fluorophenyl)-4-hydroxy-1,3-thiazol-5-yl](1H-pyrrol-1-yl)methanone], the IC50 stood at 657 nM against human TRPM8 [1], 0.651 µM at human TRPM8 [3] (setting [5]) and 0.745 µM at human TRPM8 [3] (setting [6]). Also, the figures for the half-life at 1 μM in data set [2] and in data set [4] were 32 min and 35 min, respectively.
The matching figures for `CC1CCN(C(=O)c2sc(-c3cccc(F)c3)nc2O)O1` (stereo not drawn) [Example 29, [2-(3-fluorophenyl)-4-hydroxy-1,3-thiazol-5-yl](5-methyl-1,2-oxazolidin-2-yl) methanone]: 31 nM, 0.091 µM, 0.111 µM, 91 min and 78 min.
Regarding `CN1CCCC1C(=O)c1sc(-c2cccc(F)c2)nc1O` (stereo not drawn) [Example 16, [2-(3-fluorophenyl)-4-hydroxy-1,3-thiazol-5-yl](1-methylpyrrolidin-2-yl)methanone], the figures for the IC50 on human TRPM8 [1], at human TRPM8 [3] (setting [5]) and at human TRPM8 [3] (setting [6]) were 1010 nM, 1.34 µM and 1.36 µM, respectively. Also, the values for the half-life at 1 μM in data set [2] and in data set [4] were 32 min and 34 min, respectively.
In the case of `O=C(c1ccc[nH]1)c1sc(-c2cccc(F)c2)nc1O` [Example 17, [2-(3-fluorophenyl)-4-hydroxy-1,3-thiazol-5-yl](1H-pyrrol-2-yl)methanone], the IC50 was 124 nM on human TRPM8 [1], 0.482 µM at human TRPM8 [3] (setting [5]) and 0.564 µM on human TRPM8 [3] (setting [6]). The results for the half-life at 1 μM in data set [2] and in data set [4] were 90 min and 82 min, respectively.
The matching figures for `O=C(c1sc(-c2cccc(F)c2)nc1O)n1cccn1` [Example 26, [2-(3-fluorophenyl)-4-hydroxy-1,3-thiazol-5-yl](1H-pyrazol-1-yl)methanone]: 1320 nM, 1.65 µM, 1.32 µM, 89 min and 86 min.
As to `O=C(c1sc(-c2cccc(F)c2)nc1O)N1CCCO1` [Example 1, [2-(3-fluorophenyl)-4-hydroxy-1,3-thiazol-5-yl](1,2-oxazolidin-2-yl)methanone], the “intrinsic clearance half-life (in words)” value in data set [2] is “highest intrinsic clearance half-life”. Besides, the values for the half-life at 1 μM in data set [2] and in data set [4] were 185 min and 120 min, respectively.

As a reminder, the IC50 is the concentration needed to halve the response being measured.
